What was measured:
ACHN [1] = assay: Cytotoxicity against TRAIL-resistant human ACHN cells assessed as cell killing after 20 to 24 hrs; assay type: functional, cell-based
ACHN [2] = assay: Ratio of EC50 for TRAIL-resistant human ACHN cells to EC50 for TRAIL-resistant human ACHN cells in presence of TRAIL; assay type: functional
ACHN [3] = assay: Cytotoxicity against TRAIL-resistant human ACHN cells assessed as cell killing after 20 to 24 hrs in presence of TRAIL; assay type: functional, cell-based

| SMILES | EC50 (ACHN [1]) [µM] | Ratio EC50 (ACHN [2]) | EC50 (ACHN [3]) [nM] |
| --- | --- | --- | --- |
| C=CC(=C)[C@@H](C[C@]1(C)[C@H](C)C[C@@H](O)[C@@]23C(=C[C@H](OC(=O)/C=C\C=C\CCCCC)C[C@@H]12)[C@@H](OC(C)=O)O[C@H]3OC(C)=O)OO [ARGUTIN F] | 10.4 | 1.5 | 7100 |
| C=C/C(C)=C/C[C@]1(C)[C@H](C)C[C@@H](OC(=O)/C=C/C=C/CCCCC)[C@@]23C(=C[C@H](O)C[C@@H]12)[C@@H](OC(C)=O)O[C@H]3OC(C)=O [ARGUTIN B] | 13.8 | 3 | 4600 |
| C=C/C(C)=C/C[C@]1(C)[C@H](C)[C@@H](O)C[C@@]23C(=C[C@H](OC(=O)/C=C\C=C\CCCCC)C[C@@H]12)[C@@H](OC(C)=O)O[C@H]3OC(C)=O [ARGUTIN E] | 3.3 | 1.5 | 2200 |
| C=C/C(C)=C/C[C@]1(C)[C@H](C)C[C@@H](O)[C@@]23C(=C[C@H](OC(=O)/C=C\C=C\CCCCC)C[C@@H]12)[C@@H](OC(C)=O)O[C@H]3OC(C)=O [ARGUTIN A] | 5.4 | 2.3 | 2400 |
| C=CC(=C)[C@@H](C[C@]1(C)[C@H](C)[C@@H](O)[C@@H](O)[C@@]23C(=C[C@H](OC(=O)/C=C\C=C\CCCCC)C[C@@H]12)[C@@H](OC(C)=O)O[C@H]3OC(C)=O)OO [ARGUTIN G] | 4.2 | 1.5 | 2800 |
| C=C/C(C)=C/C[C@]1(C)[C@H](C)[C@@H](O)[C@@H](O)[C@@]23C(=C[C@H](OC(=O)/C=C\C=C\CCCCC)C[C@@H]12)[C@@H](OC(C)=O)O[C@H]3OC(C)=O [ARGUTIN C] | 3.1 | 1.9 | 1600 |
| C=C/C(C)=C/C[C@]1(C)[C@H](C)[C@@H](O)[C@@H](OC(=O)/C=C/C=C/CCCCC)[C@@]23C(=C[C@H](O)C[C@@H]12)[C@@H](OC(C)=O)O[C@H]3OC(C)=O [ARGUTIN D] | 14.3 | 1.6 | 8700 |

From ChEMBL document CHEMBL1649347, “Clerodane diterpenes from Casearia arguta that act as synergistic TRAIL sensitizers” (J Nat Prod, 2010)
